In patent publication US7579006B2, “Method of treating immune pathologies with low dose estrogen” (Oregon Health and Science University, priority 2000, dated 2009):

Tests used:
Lymph node CD3+ T cells = experiment: FACS of chemokine receptors on lymph node CD3+ T cells; type: in vivo, mice; conditions: 0.36 mg pellet
Experimental: Flow cytometry. Lymph node cells from sham and 17β-estradiol treated animals with EAE were washed with PBS/2% FCS/0.2% NaN3 and first incubated on ice for 30 min with Fcγ III/II receptor blocking monoclonal antibody (PharMingen), then stained with PE-conjugated anti-CD3 (PharMingen). After 20 min of incubation with anti-CD3, the cells were fixed and permablized using Cytofix/Cytoperm (PharMingen). Subsequently, cells were incubated with anti-CCR1, anti-CCR2, anti-CCR3, anti-CCR4 and anti-CCR5 goat anti-mouse polyclonal antibodies (Santa Cruz Biotechnology Inc.; USA) for 30 min on ice. After washing, cells were stained with FITC-conjugated anti-goat monoclonal antibodies (Sigma) for an additional 30 min on ice. Cells were analyzed using a FACS-Scan (Becton Dickinson). Propidium iodide and forward/side scatter gating were used to exclude dead cells.

C57BL/6 mice = experiment: EAE induced with MOG 35-55 in C57BL/6 mice (clinical, histopathology); type: in vivo
Experimental: Estrogen treatment. Sixty-day release pellets containing 2.5 mg of 17β-estradiol (E2) or vehicle were implanted subcutaneously (s.c) in the scapular region behind the neck using a 12-gauge trochar as described by the manufacturer (Innovative Research of America, Sarasota, Fla.). The mice were implanted one week prior to immunization with MOG 35-55. The concentration of E2 expected in the serum is between 1,500-2,000 pg/ml, which is approximately 5 times less than the levels found during pregnancy.
Induction of EAE. C57BL/6 and cytokine deficient mice were inoculated s.c in the flanks with 0.2 ml of an emulsion containing 200 μg of MOG 35-55 in saline and an equal volume of complete Freund's Adjuvant (CFA) containing 400 μg of Mycobacterium tuberculosis H37RA (Difco Laboratories, Detroit, Mich.). Disease induction required i.v. administration of pertussis toxin on the day of immunization (25 ng/mouse) and 2 days later (67 ng/mouse). The mice were assessed daily for clinical signs of EAE according to the 7 point scale described in Example I.
Histopathology. Histopathologic assessment of spinal column section was performed essentially as described in Example I, except that sections were stained with either luxol fast blue-periodic acid schiff-hematoxylin or silver nitrate prior to analysis.
Statistical analysis. Significant differences in incidence and mortality between untreated and E2 treated mice were assessed by Chi-square analysis. Difference in onset was determined using the two-tailed Student t test. Differences in peak score and cumulative disease index (CDI) were assessed by the Mann-Whitney test. Statistical significance of the frequency of cytokine secreting cells was analyzed using Student's t test for comparisons of two means. Differences in the expression of chemokine and cytokine mRNA were also determined using the Student t test. Values of p<0.05 were considered significant.

CNS mononuclear cells = experiment: Intracellular cytokine staining of CNS mononuclear cells; type: in vivo, mice; conditions: 2.5 mg pellet
Text: CNS mononuclear cells were isolated from perfused brain and spinal cord by percol gradient centrifugation as described in Bebo et al., J. Neurosci. Res. 52:420-429 (1998). The cells were stimulated with MOG-35-55 peptide for 24 hrs, the last 5 hrs in the presence of Brefeldin A. The cells were then stained with anti-CD4 cychrome labeled antibodies prior to fixation and permeabilization. The cells were subsequently stained with Vβ8.1/8.2 TCR-FITC and the indicated cytokine specific antibody coupled to PE and analyzed by three-color flow cytometry. For each experiment the cells were stained with isotype control antibodies to establish background staining and to set the quadrants prior to calculating the percent positive cells.
Intracellular staining of CNS mononuclear cells with anti-cytokine antibodies was also performed. Mononuclear cells were recovered from the brain and spinal cords of perfused mice at the peak of clinical disease. […] These cells were stained with anti-CD4 cychrome labeled antibodies and the frequency of cytokine producing Vβ8.2+ helper T cells was measured by staining with anti-Vβ8.2-FITC and PE-labeled cytokine specific antibodies.

[1] = tested on: Vβ8.1/8.2 TCR+ spleen cells; experiment: Intracellular cytokine staining of MOG 35-55 stimulated spleen cells; type: in vivo, mice
Experimental: Intracellular staining for cytokines. Single cell suspensions from spleen were prepared from immunized mice and cultured at 10×10^6 cells/ml in stimulation media containing 50 μg/ml of MOG 35-55. The cells were stimulated for 24 hrs, the last 5 hrs in the presence of Brefeldin A. The cells were then stained with anti-Vβ8.1/8.2 TCR FITC for 30 min at 4° C. prior to fixation and permeabilization with cytofix/cytoperm solution (Pharmingen, Inc.). The cells were then stained with anti-cytokine antibodies labeled with phycoerythrin (anti-mouse IFN-γ, TNF-α, IL-4, IL-10, and IL-12 from Pharmingen Inc.) for 30 min at 4° C. The cells were washed twice in perm/wash buffer (Pharmingen, Inc.) and once in FACS staining buffer (PBS, 1% BSA, 0.05% NaN3) prior to two-color FACS analysis on a FACScan instrument (Beckton-Dickenson, Inc., Sunnyvale, Calif.) using Cell Quest software (Beckton-Dickenson, Inc.). For each experiment the cells were stained with isotype control antibodies to establish background staining and to set the quadrants prior to calculating the percent positive cells.
In order to determine whether estrogen treatment promotes a shift towards Th2 immunity, the frequency of both pro- and anti-inflammatory cytokine producing cells in untreated and E2 treated mice was assessed, using the intracellular cytokine staining technique. Spleen cells were prepared from untreated and E2 treated mice at the peak of EAE (day 12-16 post-immunization) and stimulated with MOG 35-55 for 24 hr, the last […] in the presence of Brefeldin A. The cells were stained with FITC labeled anti-Vβ8.1/8.2 TCR antibodies prior to fixation and permeabilization, and then were stained with the indicated phycoerythrin labeled anti-cytokine antibodies. Vβ8.1/8.2 TCR bearing T cells were focused on because they are thought to comprise a major population of the MOG-35-55 specific T cell responses in H-2b mice.

## C[C@]12CC[C@@H]3c4ccc(O)cc4CC[C@H]3[C@@H]1CC[C@@H]2O [17β-estradiol]
Lymph node CD3+ T cells
  CCR2 staining of lymph node CD3+ T cells: No difference
Lymph node CD3+ T cells; sham 35+4, p=0.03, in %
  percentage of CCR5 positive lymph node CD3+ T cells: 27+2
Lymph node CD3+ T cells; sham 91+6%, p=0.02
  percentage of CCR1 positive lymph node CD3+ T cells: 77+2%
C57BL/6 mice; B6, 2.5 mg pellet
  CDI: 15.1 ± 17.0
  Incidence: 19/31
  Mortality: 0/31
  Onset: 20.8 ± 3.7
  Peak Score: 4.2 ± 1.2
C57BL/6 mice; C57BL/6, 2.5 mg pellet, spinal cord
  Inflammatory foci/section: 0.0 ± 0.0 Foci/Section
CNS mononuclear cells; p<0.0001
  frequency and staining intensity of TNF-α and IFN-γ producing CD4+ T cells in the CNS: dramatic reduction
CNS mononuclear cells; peak of clinical disease
  total number of mononuclear cells recovered from perfused CNS, untreated relative to E2 treated mice: 4-5 times higher
CNS mononuclear cells; untreated 29,000 cells/mouse
  pro-inflammatory cytokine producing CD4+ Vβ8.2+ T cells in CNS: 390 cells/mouse
[1]; C57BL/6 mice, p=0.004
  frequency of TNF-α producing Vβ8.1/8.2 TCR+ cells: significantly diminished
[1]; IFN-γ knockout mice
  frequency of TNF-α producing Vβ8.1/8.2 TCR+ cells: no further reduction
[1]; IL-4 knockout mice, p=0.06
  frequency of TNF-α producing Vβ8.1/8.2 TCR+ cells: significantly diminished
[1]; IL-10 knockout mice, p=0.001
  frequency of TNF-α producing Vβ8.1/8.2 TCR+ cells: significantly diminished
[1]; trend, p>0.05
  frequency of IFN-γ producing cells: lower frequency
